Legend:
Assay in all cases: KINOMEscan competition binding
Conditions in all cases: compound 10.0 µM
[1] = test system: FLT3 (human), P36888 [ITD]
[2] = biological target: MLTK (human) (UniProt Q9NYL2)
[3] = test system: ABL1 (human), P00519 [M351T]
[4] = biological target: SRC (human) (UniProt P12931)
[5] = biological target: ACVR1B (human) (UniProt P36896)
[6] = test system: FLT3 (human), P36888 [N841I]
[7] = biological target: MAPK15 (human) (UniProt Q8TD08)
[8] = biological target: STK25 (human) (UniProt O00506)
[9] = test system: EGFR (human), P00533 [T790M]
[10] = biological target: CAMK2A (human) (UniProt Q9UQM7)
[11] = biological target: PRKD1 (human) (UniProt Q15139)
[12] = biological target: ACVR1 (human) (UniProt Q04771)
[13] = biological target: GSK3B (human) (UniProt P49841)
[14] = biological target: LIMK1 (human) (UniProt P53667)
[15] = biological target: MAP2K3 (human) (UniProt P46734)
[16] = biological target: CSF1R (human) (UniProt P07333)
[17] = biological target: DAPK3 (human) (UniProt O43293)
[18] = biological target: CDKL1 (human) (UniProt Q00532)
[19] = biological target: SIK1 (human) (UniProt P57059)
[20] = biological target: YES1 (human) (UniProt P07947)
[21] = biological target: GSK3A (human) (UniProt P49840)
[22] = biological target: MAP3K10 (human) (UniProt Q02779)
[23] = biological target: MATK (human) (UniProt P42679)
[24] = biological target: TESK1 (human) (UniProt Q15569)
[25] = biological target: PLK1 (human) (UniProt P53350)
[26] = biological target: PHKG2 (human) (UniProt P15735)
[27] = biological target: BMPR2 (human) (UniProt Q13873)
[28] = biological target: TBK1 (human) (UniProt Q9UHD2)
[29] = test system: RET (human), P07949 [V804L]
[30] = biological target: GAK (human) (UniProt O14976)
[31] = biological target: CHEK2 (human) (UniProt O96017)
[32] = biological target: PKN3 (M.tuberculosis) (UniProt Q6P5Z2)
[33] = biological target: MELK (human) (UniProt Q14680)
[34] = biological target: PIM1 (human) (UniProt P11309)
[35] = biological target: PDPK1 (human) (UniProt O15530)
[36] = biological target: LRRK2 (human) (UniProt Q5S007)
[37] = biological target: NEK2 (human) (UniProt P51955)
[38] = biological target: KIT (human) (UniProt P10721)
[39] = biological target: EIF2AK1 (human) (UniProt Q9BQI3)
[40] = biological target: ROCK1 (human) (UniProt Q13464)
[41] = biological target: IRAK4 (human) (UniProt Q9NWZ3)

Chain of ACVR1 (human) (Q04771 whole entry, looked up): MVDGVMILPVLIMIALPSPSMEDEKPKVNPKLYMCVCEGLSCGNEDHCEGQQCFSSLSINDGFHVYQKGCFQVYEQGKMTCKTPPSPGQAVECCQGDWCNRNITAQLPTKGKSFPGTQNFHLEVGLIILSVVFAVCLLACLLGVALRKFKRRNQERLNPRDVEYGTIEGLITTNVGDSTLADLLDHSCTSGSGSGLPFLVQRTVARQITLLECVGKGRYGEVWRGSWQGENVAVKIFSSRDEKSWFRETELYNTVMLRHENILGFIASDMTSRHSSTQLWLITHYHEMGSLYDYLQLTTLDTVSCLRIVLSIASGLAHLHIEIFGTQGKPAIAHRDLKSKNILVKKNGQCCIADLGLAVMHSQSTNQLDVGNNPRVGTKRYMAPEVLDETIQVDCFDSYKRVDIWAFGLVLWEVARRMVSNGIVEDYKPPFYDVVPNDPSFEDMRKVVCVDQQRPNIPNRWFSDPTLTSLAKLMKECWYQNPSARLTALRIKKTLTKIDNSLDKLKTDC
Chain of CSF1R (human) (P07333 whole entry, looked up): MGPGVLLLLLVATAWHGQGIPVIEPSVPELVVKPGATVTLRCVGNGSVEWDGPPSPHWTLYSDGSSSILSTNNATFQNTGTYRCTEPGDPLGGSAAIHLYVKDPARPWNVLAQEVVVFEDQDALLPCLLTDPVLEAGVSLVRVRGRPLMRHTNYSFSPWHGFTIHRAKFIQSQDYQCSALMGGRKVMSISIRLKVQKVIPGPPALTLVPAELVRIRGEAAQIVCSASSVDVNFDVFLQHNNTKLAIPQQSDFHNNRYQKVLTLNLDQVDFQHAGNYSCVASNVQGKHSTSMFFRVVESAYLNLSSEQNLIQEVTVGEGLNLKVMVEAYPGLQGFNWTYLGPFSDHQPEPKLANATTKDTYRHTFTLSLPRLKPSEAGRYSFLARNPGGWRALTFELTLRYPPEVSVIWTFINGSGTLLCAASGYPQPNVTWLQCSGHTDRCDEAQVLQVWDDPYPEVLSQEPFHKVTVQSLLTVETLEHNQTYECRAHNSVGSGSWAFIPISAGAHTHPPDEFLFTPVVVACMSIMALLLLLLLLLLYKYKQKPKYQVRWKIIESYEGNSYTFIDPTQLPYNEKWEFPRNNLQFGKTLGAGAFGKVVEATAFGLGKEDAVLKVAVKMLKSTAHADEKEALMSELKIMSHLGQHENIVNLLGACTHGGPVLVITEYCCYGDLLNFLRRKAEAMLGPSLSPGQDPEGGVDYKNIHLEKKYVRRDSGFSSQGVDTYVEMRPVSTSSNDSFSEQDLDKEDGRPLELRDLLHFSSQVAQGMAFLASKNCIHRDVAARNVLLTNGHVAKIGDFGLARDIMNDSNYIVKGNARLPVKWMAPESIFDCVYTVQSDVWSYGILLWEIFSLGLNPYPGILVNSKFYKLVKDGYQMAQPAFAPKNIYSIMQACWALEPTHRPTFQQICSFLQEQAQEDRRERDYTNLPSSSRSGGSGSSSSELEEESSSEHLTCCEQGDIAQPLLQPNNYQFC
Chain of EIF2AK1 (human) (Q9BQI3 whole entry, looked up): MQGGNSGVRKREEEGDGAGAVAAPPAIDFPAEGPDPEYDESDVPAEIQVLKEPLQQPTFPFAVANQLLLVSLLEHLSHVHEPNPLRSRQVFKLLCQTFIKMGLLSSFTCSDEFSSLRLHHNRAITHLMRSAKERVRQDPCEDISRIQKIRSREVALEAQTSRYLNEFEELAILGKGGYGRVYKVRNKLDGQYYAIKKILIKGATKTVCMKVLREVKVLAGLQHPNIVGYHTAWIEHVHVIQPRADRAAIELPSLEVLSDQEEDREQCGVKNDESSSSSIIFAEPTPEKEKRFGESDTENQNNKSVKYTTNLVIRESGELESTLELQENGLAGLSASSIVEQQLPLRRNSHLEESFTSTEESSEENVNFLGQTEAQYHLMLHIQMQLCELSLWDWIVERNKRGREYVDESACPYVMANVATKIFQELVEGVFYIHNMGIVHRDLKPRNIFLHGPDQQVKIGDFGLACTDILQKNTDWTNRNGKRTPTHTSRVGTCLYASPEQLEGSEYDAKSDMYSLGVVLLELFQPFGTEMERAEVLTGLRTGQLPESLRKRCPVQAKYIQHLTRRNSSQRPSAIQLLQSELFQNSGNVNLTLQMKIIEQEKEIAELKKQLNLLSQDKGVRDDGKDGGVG
Chain of NEK2 (human) (P51955 whole entry, looked up): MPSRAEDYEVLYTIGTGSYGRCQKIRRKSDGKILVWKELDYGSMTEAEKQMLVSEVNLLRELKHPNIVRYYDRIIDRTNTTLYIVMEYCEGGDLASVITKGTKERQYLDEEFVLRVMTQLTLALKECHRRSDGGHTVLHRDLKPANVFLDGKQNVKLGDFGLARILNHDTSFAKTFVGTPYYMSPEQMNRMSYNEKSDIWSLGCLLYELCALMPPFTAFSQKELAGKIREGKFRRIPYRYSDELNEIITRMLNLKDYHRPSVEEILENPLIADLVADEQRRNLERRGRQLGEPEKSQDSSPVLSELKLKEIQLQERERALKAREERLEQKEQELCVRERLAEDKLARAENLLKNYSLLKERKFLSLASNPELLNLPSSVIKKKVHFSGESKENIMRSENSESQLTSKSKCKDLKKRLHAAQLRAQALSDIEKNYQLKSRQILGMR
Chain of MLTK (human) (Q9NYL2 whole entry, looked up): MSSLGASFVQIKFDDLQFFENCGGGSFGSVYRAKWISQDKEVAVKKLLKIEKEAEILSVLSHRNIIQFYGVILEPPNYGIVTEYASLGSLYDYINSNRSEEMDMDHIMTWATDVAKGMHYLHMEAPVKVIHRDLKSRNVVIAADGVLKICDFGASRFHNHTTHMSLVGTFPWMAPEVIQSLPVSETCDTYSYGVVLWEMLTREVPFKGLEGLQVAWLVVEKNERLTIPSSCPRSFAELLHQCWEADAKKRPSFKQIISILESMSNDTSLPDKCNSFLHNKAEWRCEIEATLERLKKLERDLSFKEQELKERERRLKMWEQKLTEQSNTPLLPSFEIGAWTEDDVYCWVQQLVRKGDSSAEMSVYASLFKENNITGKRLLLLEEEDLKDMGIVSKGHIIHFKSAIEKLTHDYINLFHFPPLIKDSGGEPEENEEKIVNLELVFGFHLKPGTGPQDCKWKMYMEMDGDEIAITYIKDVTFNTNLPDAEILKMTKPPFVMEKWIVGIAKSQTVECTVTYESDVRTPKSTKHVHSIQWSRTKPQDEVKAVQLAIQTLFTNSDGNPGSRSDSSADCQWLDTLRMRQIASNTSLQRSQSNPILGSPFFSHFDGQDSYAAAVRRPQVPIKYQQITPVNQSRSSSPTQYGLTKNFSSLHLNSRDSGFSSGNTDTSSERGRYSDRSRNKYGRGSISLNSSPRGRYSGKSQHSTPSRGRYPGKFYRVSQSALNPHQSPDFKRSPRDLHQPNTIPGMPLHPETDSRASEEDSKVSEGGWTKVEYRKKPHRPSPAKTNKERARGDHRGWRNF
Chain of YES1 (human) (P07947 whole entry, looked up): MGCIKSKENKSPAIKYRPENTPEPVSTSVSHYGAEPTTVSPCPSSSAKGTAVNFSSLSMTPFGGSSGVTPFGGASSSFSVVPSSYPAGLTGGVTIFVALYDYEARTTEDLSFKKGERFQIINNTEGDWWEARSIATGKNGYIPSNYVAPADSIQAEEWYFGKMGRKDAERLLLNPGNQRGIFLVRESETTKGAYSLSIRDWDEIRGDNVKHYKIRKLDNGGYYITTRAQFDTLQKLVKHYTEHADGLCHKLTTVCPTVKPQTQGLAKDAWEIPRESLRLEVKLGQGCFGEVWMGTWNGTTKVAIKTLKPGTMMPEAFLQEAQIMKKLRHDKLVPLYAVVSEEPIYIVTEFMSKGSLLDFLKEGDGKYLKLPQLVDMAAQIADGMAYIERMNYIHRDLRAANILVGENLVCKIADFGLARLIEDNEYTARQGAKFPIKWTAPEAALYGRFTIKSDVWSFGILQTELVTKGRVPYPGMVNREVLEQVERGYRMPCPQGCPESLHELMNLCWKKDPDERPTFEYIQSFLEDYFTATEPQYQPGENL
Chain of PKN3 (M.tuberculosis) (Q6P5Z2 whole entry, looked up): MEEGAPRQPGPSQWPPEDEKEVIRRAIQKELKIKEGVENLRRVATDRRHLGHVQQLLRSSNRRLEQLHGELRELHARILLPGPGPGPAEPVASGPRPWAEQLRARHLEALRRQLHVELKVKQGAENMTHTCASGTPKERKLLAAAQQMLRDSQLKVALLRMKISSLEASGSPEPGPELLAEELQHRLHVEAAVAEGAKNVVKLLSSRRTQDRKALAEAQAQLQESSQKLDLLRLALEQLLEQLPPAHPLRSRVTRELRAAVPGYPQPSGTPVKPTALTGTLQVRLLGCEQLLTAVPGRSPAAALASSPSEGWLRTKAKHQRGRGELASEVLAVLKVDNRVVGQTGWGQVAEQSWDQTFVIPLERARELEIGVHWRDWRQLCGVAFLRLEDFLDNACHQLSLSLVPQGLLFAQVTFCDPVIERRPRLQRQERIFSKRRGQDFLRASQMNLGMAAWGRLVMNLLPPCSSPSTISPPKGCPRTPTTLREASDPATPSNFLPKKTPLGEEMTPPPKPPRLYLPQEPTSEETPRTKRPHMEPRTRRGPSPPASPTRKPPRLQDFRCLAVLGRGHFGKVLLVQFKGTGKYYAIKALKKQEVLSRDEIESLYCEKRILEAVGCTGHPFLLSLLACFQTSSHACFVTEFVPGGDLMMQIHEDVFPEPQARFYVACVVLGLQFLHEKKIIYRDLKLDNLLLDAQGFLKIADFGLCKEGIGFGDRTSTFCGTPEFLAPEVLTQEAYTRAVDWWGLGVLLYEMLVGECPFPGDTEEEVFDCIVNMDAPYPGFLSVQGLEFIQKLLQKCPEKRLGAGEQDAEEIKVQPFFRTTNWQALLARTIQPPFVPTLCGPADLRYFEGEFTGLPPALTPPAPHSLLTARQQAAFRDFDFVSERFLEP

Compound COc1ccc(-c2ccc3c(N4CCOCC4)nc(N4C[C@@H](C)O[C@@H](C)C4)nc3n2)cc1CO has a kinase still bound, per cent of control [1] of 100%, a kinase still bound, per cent of control [2] of 100% and a kinase still bound, per cent of control [3] of 100%. It also gave a kinase still bound, per cent of control [4] of 100%, a kinase still bound, per cent of control [5] of 91% and a kinase still bound, per cent of control [6] of 82%. For the same compound, the kinase still bound, per cent of control [7] was 96%, the kinase still bound, per cent of control [8] was 100% and the kinase still bound, per cent of control [9] was 100%. The kinase still bound, per cent of control [10] was 87%, the kinase still bound, per cent of control [11] was 91% and the kinase still bound, per cent of control [12] was 100%. The kinase still bound, per cent of control [13] was 100%, the kinase still bound, per cent of control [14] was 100% and the kinase still bound, per cent of control [15] was 94%. The kinase still bound, per cent of control [16] was 90%, the kinase still bound, per cent of control [17] was 89% and the per cent of control [18] was 100%. For the same compound, the kinase still bound, per cent of control [19] was 90%, the kinase still bound, per cent of control [20] was 100% and the kinase still bound, per cent of control [21] was 100%. The kinase still bound, per cent of control [22] was 98%, the kinase still bound, per cent of control [23] was 78% and the kinase still bound, per cent of control [24] was 98%. It also gave a kinase still bound, per cent of control [25] of 55%, a kinase still bound, per cent of control [26] of 77% and a kinase still bound, per cent of control [27] of 79%. The kinase still bound, per cent of control [28] was 100%, the kinase still bound, per cent of control [29] was 100% and the kinase still bound, per cent of control [30] was 95%. It also gave a kinase still bound, per cent of control [31] of 100%, a kinase still bound, per cent of control [32] of 100% and a kinase still bound, per cent of control [33] of 97%. It also gave a kinase still bound, per cent of control [34] of 94%, a kinase still bound, per cent of control [35] of 100% and a kinase still bound, per cent of control [36] of 100%. For the same compound, the kinase still bound, per cent of control [37] was 100%, the kinase still bound, per cent of control [38] was 87% and the kinase still bound, per cent of control [39] was 88%. For the same compound, the kinase still bound, per cent of control [40] was 89% and the kinase still bound, per cent of control [41] was 99%.

Source: the kinase profiling compilation of Christmann-Franck et al. (2016)
